Source: patent publication US20230073183A1, “IMPROVED URICASE AND METHOD FOR TREATING HYPERURICEMIA USING SAME” (SHANGHAI JUNSHI BIOSCIENCES CO., LTD., priority 2019, published 2023)

Experiments:
Format in all cases: biochemical
[1] = biological target: T1, Micrococcus uricase variant AG-2C13-PEG (A35C/S288C in AG-00-1, SEQ ID NO: 3; PEGylated) (Arthrobacter globiformis, UniProt D0VWQ1, A35C/S288C); experiment: Enzyme activity kinetic study of PEGylated uricase with uric acid; conditions: Tris-HCl pH 8.5, 37° C.; turnover number, substrate converted within one second
T1 construct: purified
T1 sequence (D0VWQ1 1-297 A35C/S288C): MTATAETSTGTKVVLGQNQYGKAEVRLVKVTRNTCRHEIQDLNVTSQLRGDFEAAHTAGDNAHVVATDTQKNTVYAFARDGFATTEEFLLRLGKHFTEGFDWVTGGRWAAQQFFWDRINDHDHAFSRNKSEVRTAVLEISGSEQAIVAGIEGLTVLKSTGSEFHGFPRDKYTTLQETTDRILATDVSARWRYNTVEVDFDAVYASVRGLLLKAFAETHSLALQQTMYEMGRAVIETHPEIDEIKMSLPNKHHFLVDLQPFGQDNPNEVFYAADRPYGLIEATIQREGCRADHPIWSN
Procedure: (§1) By using a method similar to that in Example 1 to introduce Cys mutations, the following molecules were prepared: AG-2C12, AG-2C13, AG-2C16, AG-2C17, AG-1C13-1, AG-2C01, AG-2C05-1, AG-2C01-1 and AG-2C12-1.
(§2) To 2 mg of a uricase (100 mM PBS buffer, pH=7.0, 150 mM NaCl) were sequentially added TCEP.HCl (0.5 mg, tris(2-carboxyethyl)phosphine hydrochloride) and M-MAL-PEG-10K (27.5 mg, maleimide polyethylene glycol, molecular weight of 10,000 Da). The mixture was allowed to react at room temperature for 2 h. The reaction mixture was purified by ion-exchange chromatography to obtain a PEGylated uricase.
(§3) The Cys mutation sites selected above were paired for PEGylation modification and uricase activity evaluation.
(§4) A. Enzyme Activity Kinetic Study of PEGylated […]
(§5) Tris-HCl buffer system (pH 8.5) was used. The stock solution for uricase working solutions was 2 mM uric acid, which was stored at 4° C. Process of enzyme activity assay:
(§6) The temperature was set at 37° C.
(§7) Substrate (uric acid) concentration gradients: 600 μmol, 500 μmol, 400 μmol, 200 μmol, 100 μmol, 50 μmol, 25 μmol, and 12.5 μmol.
(§8) 50 μL of the above uric acid solution and 30 μL of the above Tris-HCl buffer were first added to a 96-well plate and incubated at 37° C. for 20 min. Then 20 μL of an appropriately diluted uricase solution (0.004 mg/mL) was rapidly added to the 96-well plate. Procedure setting: reaction for 10 min, one data reading every 20 s, and initiation of reaction.

[2] = biological target: T2, Micrococcus uricase variant AG-2C12-PEG (S142C/E216C in AG-00-1, SEQ ID NO: 3; PEGylated) (Arthrobacter globiformis, UniProt D0VWQ1, E216C/S142C); experiment: as above; conditions: Tris-HCl pH 8.5, 37° C.; turnover number, substrate converted within one second
T2 construct: purified
T2 sequence (D0VWQ1 1-297 S142C/E216C): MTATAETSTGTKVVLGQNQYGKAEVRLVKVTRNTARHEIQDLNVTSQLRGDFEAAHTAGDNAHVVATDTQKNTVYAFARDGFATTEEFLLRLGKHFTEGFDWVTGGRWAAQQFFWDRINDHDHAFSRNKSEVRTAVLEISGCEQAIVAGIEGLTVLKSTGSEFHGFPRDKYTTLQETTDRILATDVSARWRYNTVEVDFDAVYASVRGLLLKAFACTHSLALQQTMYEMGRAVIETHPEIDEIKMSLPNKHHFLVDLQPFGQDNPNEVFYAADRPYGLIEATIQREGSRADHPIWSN
Procedure: as §1, §2, §3, §4, §5, §6, §7, §8

[3] = biological target: T3, Micrococcus uricase variant AG-2C01-2-PEG (A35C/T194C in AG-00-1, SEQ ID NO: 3; PEGylated) (Arthrobacter globiformis, UniProt D0VWQ1, A35C/T194C); experiment: as above; conditions: Tris-HCl pH 8.5, 37° C.; turnover number, substrate converted within one second
T3 construct: purified
T3 sequence (D0VWQ1 1-297 A35C/T194C): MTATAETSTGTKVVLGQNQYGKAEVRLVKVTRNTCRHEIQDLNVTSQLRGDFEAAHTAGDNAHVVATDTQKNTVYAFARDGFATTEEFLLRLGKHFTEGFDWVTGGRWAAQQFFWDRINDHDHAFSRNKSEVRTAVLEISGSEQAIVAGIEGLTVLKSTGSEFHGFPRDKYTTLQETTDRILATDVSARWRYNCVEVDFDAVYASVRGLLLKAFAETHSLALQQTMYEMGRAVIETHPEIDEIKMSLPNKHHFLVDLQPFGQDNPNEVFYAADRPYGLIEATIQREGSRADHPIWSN
Procedure: as §1, §2, §3, §4, §5, §6, §7, §8

[4] = biological target: T4, reference uricase MEDI4945 (SEQ ID NO: 2) (Arthrobacter globiformis, UniProt D0VWQ1, N33C/R49S/T11C); experiment: Enzyme activity kinetic study of reference uricase with uric acid; conditions: Tris-HCl pH 8.5, 37° C.; turnover number, substrate converted within one second
T4 sequence (D0VWQ1 with tags, fused parts or gaps T11C/N33C/R49S): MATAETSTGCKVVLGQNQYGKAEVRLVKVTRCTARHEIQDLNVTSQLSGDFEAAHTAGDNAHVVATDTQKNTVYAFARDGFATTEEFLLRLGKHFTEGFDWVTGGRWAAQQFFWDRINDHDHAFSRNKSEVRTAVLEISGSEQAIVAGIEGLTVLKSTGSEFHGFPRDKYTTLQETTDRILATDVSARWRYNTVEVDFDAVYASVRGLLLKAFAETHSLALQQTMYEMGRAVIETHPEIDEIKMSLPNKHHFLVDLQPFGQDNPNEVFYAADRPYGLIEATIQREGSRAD
Procedure: (§9) A reference uricase MEDI4945 was synthesized using a method similar to that described above, having an amino acid sequence of SEQ ID NO: 2. MEDI4945 is the uricase disclosed in International Application No. PCT/US2016/032415, having an amino acid sequence shown below:
as §4, §5, §6, §7, §8

[5] = substrate: O=c1[nH]c(=O)c2[nH]c(=O)[nH]c2[nH]1; experiment: as above; conditions: other: Tris-HCl pH 8.5, 37° C., uric acid 12.5-600 μmol
Procedure: as §9, §4, §5, §6, §7, §8

## O=c1[nH]c(=O)c2[nH]c(=O)[nH]c2[nH]1 [uric acid]
[1]
  Kcat: 3.6
[2]
  Kcat: 5.3
[3]
  Kcat: 5.4
[4]
  Kcat: 2.6

B1: reference uricase MEDI4945 (SEQ ID NO: 2) (Arthrobacter globiformis; N33C/R49S/T11C) (protein)
chain: MATAETSTGCKVVLGQNQYGKAEVRLVKVTRCTARHEIQDLNVTSQLSGDFEAAHTAGDNAHVVATDTQKNTVYAFARDGFATTEEFLLRLGKHFTEGFDWVTGGRWAAQQFFWDRINDHDHAFSRNKSEVRTAVLEISGSEQAIVAGIEGLTVLKSTGSEFHGFPRDKYTTLQETTDRILATDVSARWRYNTVEVDFDAVYASVRGLLLKAFAETHSLALQQTMYEMGRAVIETHPEIDEIKMSLPNKHHFLVDLQPFGQDNPNEVFYAADRPYGLIEATIQREGSRAD
[5]
  Km: 101 µM
